Test results taken from patent publication US10787472B2, “Prodrugs of pyridone amides useful as modulators of sodium channels” (VERTEX PHARMACEUTICALS INCORPORATED, priority 2013, dated 2020).
One block for each molecule: values may come before it.

Tests used:
[1] = Rat IV pharmacokinetic study; assay type: in vivo, Sprague Dawley rats; conditions: male rat, after IV bolus 1 mg/kg compound 9; LLOQ 2.5 ng/mL
Description: (§1) Before extraction, plasma samples were diluted using blank plasma at an appropriate dilution factor, as necessary, depending on the dose level. […] After centrifugation, the supernatant extract (10 μL) was injected onto the LC/MS/MS system. The HPLC system included a Phenomenex Synergy Kinetix C8 column, 2.6 micron, 2.0 mm diameter×75 mm long eluted with a gradient mobile phase consisting of 0.1% formic acid in water or in acetonitrile.
(§2) The analytes were detected by MS/MS with Electrospray Ionization (ESI) in the mode of multiple reaction monitoring (MRM). […] The intra-day and inter-day assay accuracy was within 20% of the nominal values. The intra- and inter-day assay variability was ≤20%.
(§3) Key pharmacokinetic parameters such as AUCall, AUCextra, Cmax, tmax, Cl, Vss and t1/2 were determined.
(§4) Descriptive statistical data of pharmacokinetic parameters were calculated, including the mean, standard deviation (SD), using Watson LIMS version 7.4 SP3 or Microsoft Excel 2000.
Male Sprague Dawley rats (n=3) were administered a single nominal IV bolus dose of 1 mg/kg of compound 9 via a jugular vein cannula. […] Animals had free access to food and water before and after dosing. Blood samples (approximately 0.25 mL each) were collected via a carotid artery catheter prior to dosing and at 5 min, 10 min, 0.25, 0.5, 1, 2, 4, 8, 12, 24 hours post dose. […]

[2] = Monkey oral pharmacokinetic study; assay type: in vivo, cynomolgus monkeys
Description: as §1, §2, §3, §4
Male or female cynomolgus monkeys (n=3 per dose group) were administered single nominal PO doses of 10, 40, 100, 300, 500, 750 and 1000 mg/kg of compound 9 by gavage. Compound 9 was formulated in 30% PEG400 and 10% TPGS in water or 5% TPGS, 5% PVP-K30 in 50 mM Citrate, pH 5. Animals were fasted overnight prior to dosing, and were fed two hours post dose. Water was available before and after dosing. […]

[3] = Rat oral pharmacokinetic study; assay type: in vivo, Sprague Dawley rats; conditions: for Cmax: male rat, analyte 9a in plasma, 5% TPGS/5% PVP-K30/50 mM Citrate pH5, mean ± SD, N=3
Description: as §1, §2, §3, §4
Groups of male and female Sprague Dawley rats (n=3 per dose group) were administered single nominal oral doses of 10, 100, 400, 640, 1000 mg/kg (for males) and 30, 100, 300, 640, 1000 mg/kg (for females) of compound 9 by gavage. Compound 9 was formulated in either 30% PEG400 and 10% TPGS in water or 5% TPGS, 5% PVP-K30 in 50 mM Citrate, pH 5. Animals had free access to food and water before and after dosing. Blood samples (approximately 0.25 mL each) were collected via a carotid artery catheter prior to dosing and at 0.25, 0.5, 1, 2, 4, 8, 12, 24, 48 and 72 hours post dose. Each blood sample was collected into a tube that was kept on wet ice and contained potassium EDTA as the anticoagulant. Plasma was separated and stored at approximately −70° C. until analysis.

[4] = Aqueous solubility study; assay type: physicochemical; conditions: ambient conditions, 24 hours
Description: The aqueous solubility of compound 9 and 9a were determined according to the following procedure. Solubility data was determined at ambient conditions by equilibrating the compound with water on a shaking bed for 24 hours, followed by centrifugation and separation of the saturated solutions. The pH value of each media was measured before centrifugation, and the saturated solutions were assayed by HPLC.

[5] = Chemical and physical stability of crystalline Form B (XRPD, HPLC impurity profile, appearance); assay type: physicochemical
Text: Chemically and physically stable means no changes were observed on the X-ray powder diffraction and HPLC impurity profiles (e.g., less than 0.2% variance) and there were no observed changes in physical appearance of the samples.

in vivo conversion of prodrug to parent compound ([2]; monkeys): converted in vivo into compound 9a
in vivo conversion of prodrug to parent compound ([3]; rats): converted in vivo into compound 9a
SMILES: Cc1cc(F)ccc1Oc1cc(C(F)(F)F)ccc1C(=O)Nc1ccn(COP(=O)(O)O)c(=O)c1 [Compound 9, (4-(2-(4-fluoro-2-methylphenoxy)-4-(trifluoromethyl)benzamido)-2-oxopyridin-1(2H)-yl)methyl dihydrogen phosphate]
plasma concentrations of compound 9 [1]: below LLOQ for the majority of the samples
plasma concentrations of compound 9 ([2]; monkey, after PO compound 9 10-1000 mg/kg, LLOQ 10.0 to 25.0 ng/mL): below LLOQ for the majority of the samples
plasma concentrations of compound 9 ([3]; rat, after PO compound 9 10-1000 mg/kg, LLOQ 2.5 to 25 ng/mL): below LLOQ for the majority of the samples

Cmax ([3]; Sprague-Dawley, compound 9 PO 100 mg/kg): 1670 ± 1.9 ng/mL
Cmax ([3]; compound 9 PO 1000 mg/kg): 4540 ± 910 ng/mL
Solubility ([4]; pH 1.2, crystalline): <1 µg/mL
Solubility ([4]; water, pH 6.0, crystalline): <1 µg/mL
SMILES: Cc1cc(F)ccc1Oc1cc(C(F)(F)F)ccc1C(=O)Nc1cc[nH]c(=O)c1 [Compound 9a, 2-(4-fluoro-2-methylphenoxy)-N-(2-oxo-1,2-dihydropyridin-4-yl)-4-(trifluoromethyl)benzamide]

SMILES: Cc1cc(F)ccc1Oc1cc(C(F)(F)F)ccc1C(=O)Nc1ccn(COP(=O)(O)O)c(=O)c1 [crystalline Form B, (4-(2-(4-fluoro-2-methylphenoxy)-4-(trifluoromethyl)benzamido)-2-oxopyridin-1(2H)-yl)methyl dihydrogen phosphate]
chemical and physical stability ([5]; 5° C./dry, 40° C./dry, 25° C. with RH up to 60%, 40° C. with RH up to 75%): chemically and physically stable for at least one month
chemical and physical stability ([5]; open dish 40° C., 40° C./RH up to 75%, 25° C./RH up to 60%, closed dish 5° C. with desiccator): chemically and physically stable for at least three months
